Like-named read-outs stand apart in the source and are kept apart here.
Details: normal human subjects, measured over 24 hours

With `C[C@@H](O)CCOC(=O)C[C@@H](C)O` [D-β-hydroxybutyrate-R 1,3-butanediol monoester] the “maximum plasma ketone concentration” value (single dose 140 mg/kg ketone ester in milk-based drink) was 0.23 mM, the “maximum plasma ketone concentration” value (single dose 357 mg/kg ketone ester in milk-based drink) was 0.76 mM and the “maximum plasma ketone concentration” value (single dose 714 mg/kg ketone ester in milk-based drink) was 3.42 mM.
